Assay results taken from ChEMBL document CHEMBL4130428, “Recent advances in polysaccharides for osteoarthritis therapy” (2017).

Legend:
Homo sapiens [1] = experiment: Anti-osteoarthritis activity in knee osteoarthritis patient assessed as cartilage volume in medial area dosed orally for 2 consecutive years by MRI method relative to control; format: functional
Homo sapiens [2] = experiment: Anti-osteoarthritis activity in knee osteoarthritis patient assessed as cartilage volume in medial condylar area dosed orally for 2 consecutive years by MRI method relative to control; format: functional

Cc1ccc(-c2cc(C(F)(F)F)nn2-c2ccc(S(N)(=O)=O)cc2)cc1 [CELECOXIB]
inhibition (INH) (Homo sapiens [1]): 8.1%
inhibition (INH) (Homo sapiens [2]): 7.7%
